Reference: PMC12502323, “Discovery of small molecules with anthelmintic potential in the Medicines for Malaria Venture’s COVID and Global Health Priority Boxes using an infrared-based assay for Caenorhabditis elegans motility” (BMC Research Notes, 2025)
Where two headings read alike, the source gives them in different places.

Columns and labels:
Caenorhabditis elegans [1] = test: Primary screen, infrared-based (WMicroTracker ONE) C. elegans L4 motility assay at 40 µM; format: cell-based, Caenorhabditis elegans (Bristol N2); details: primary screen at 40 µM; for C. elegans NOTES (HIT): hit if motility < 25%
Protocol: (§1) Methods to cultivate C. elegans (Bristol N2) and synchronize growth to the L4 stage were as described. WMicroTracker ONE (Phylumtech, Argentina) detects movement by measuring the scattering of infrared light beams that are projected into each well of a microtiter plate (two 880 nm beams/well in a 96w plate).
(§2) Synchronized C. elegans L4 were detached from agar and collected in M9 buffer. Worms were centrifuged for 1 min at 1,900 g and washed in S medium to decrease the concentration of E. coli OP50 that might interfere with infrared detection. Control and assay compounds (1 µL) in DMSO (Fisher Scientific, Cat# BP231-100) were spotted into each well of a clear, flat-bottomed 96-well polystyrene plate (Fisherbrand, Cat# FB012931). DMSO (1%) was used as the negative control. Approximately 70 L4 in 100 µL S medium were added per well. First pass screens employed 40 µM compound, and motility was measured every 20 min for 24 h in the WMicroTracker ONE reader in which the temperature was 25 ± 1 °C. Motility was normalized relative to the DMSO controls. Hits were defined as compounds that decreased motility to ≤ 25% of that in DMSO control worms.

[2] = HEK293 cytotoxicity assay (resazurin); format: cell-based, Human; details: human
Protocol: Potent compounds were also evaluated for cytotoxicity against HEK293 cells. Cells were cultured at 37 °C and 5% in Dulbecco’s Modified Eagle Medium (DMEM; Gibco, Cat#: 11965-092) containing 10% heat-inactivated fetal bovine serum (FBS; Omega Scientific Inc., Cat#: FB02) and 1% penicillin-streptomycin (ThermoFisher Scientific, Cat#: 15140122), and then sub-cultured when 60–80% confluent. Cells were detached with 0.05% trypsin/EDTA (ThermoFisher Scientific, Cat#: 25300054) and centrifuged for 5 min at 1,900 g.
Screens were performed over 11 compound concentrations (0.00007–40 µM) that had been prepared in DMSO. Aliquots (1 µL) were spotted into each well of a clear-bottomed, 96-well, polystyrene assay plate (Fisher Scientific, Cat#: FB012931). Approximately 20,000 HEK293 cells in 99 µL of the above supplemented DMEM were then added to each well. After 46 h at 37 °C and 5% CO2, 20 µL 0.5 mM resazurin (ThermoFisher Scientific, Cat#: B21187.03) were added and the incubation continued for 2 h at 37 °C [27]. Fluorescence was measured in a 2104 EnVision Multilabel Plate Reader (PerkinElmer) at 560 and 590 nm excitation and emission wavelengths, respectively. Raw data were exported from the EnVision Workstation software (version 1.13.3009.1401; PerkinElmer) into Prism GraphPad, and the half-maximal cytotoxic concentration (CC50) values were calculated using a non-linear regression curve.

Caenorhabditis elegans [3] = test: Concentration response C. elegans L4 motility assay (WMicroTracker ONE), EC50; format: cell-based, Caenorhabditis elegans (Bristol N2); details: Caenorhabditis elegans, read-out: EC50 (motility)
Protocol: as §1, §2
For potent compounds, concentration response assays (nine concentrations: 0.005 µM to 40 or 100 µM) were conducted to measure the half-maximal effective concentration (EC50). Compounds were serially diluted in DMSO using 96-well, v-bottomed polypropylene dilution plates (ThermoFisher Scientific, Cat#: 249944) and 1 µL aliquots spotted into each well of the assay plates. Motility was measured as described above. Prism GraphPad, Version 8.0 (GraphPad Software, San Diego, CA) was used to calculate EC50 values using a non-linear sigmoidal four parameter logistic curve.

[4] = C. elegans L4, WMicroTracker ONE
[5] = HEK293 cell viability after 48 h, read-out: CC50

| Compound | C. elegans Mean motility vs. DMSO control (%) (Caenorhabditis elegans [1]; C. elegans L4) | C. elegans Mean motility vs. DMSO control (%) (Caenorhabditis elegans [1]; [4]) | further results |
| --- | --- | --- | --- |
| O[C@@H](c1cc(C(F)(F)F)nc2c(C(F)(F)F)cccc12)[C@H]1CCCCN1 [MMV000014] | 88.32 |  |  |
| O[C@@H](c1cc(C(F)(F)F)nc2c(C(F)(F)F)cccc12)[C@H]1CCCCN1 [MMV000016] |  | 108.37 |  |
| NS(=O)(=O)c1cc2c(cc1Cl)N=CNS2(=O)=O [MMV001901] |  | 96.35 |  |
| CCCCc1oc2ccccc2c1C(=O)c1cc(I)c(OCCN(CC)CC)c(I)c1 [MMV001992] | 67.16 |  |  |
| Cc1onc(-c2ccccc2)c1-c1ccc(S(N)(=O)=O)cc1 [MMV002260] | 95.37 |  |  |
| Cc1ncc([N+](=O)[O-])n1CC(C)O (stereo not drawn) [MMV002287] | 78.09 |  |  |
| OC(Cn1cncn1)(Cn1cncn1)c1ccc(F)cc1F [MMV002337] |  | 103.8 |  |
| COc1ccc(Cc2nccc3cc(OC)c(OC)cc23)cc1OC [MMV002798] |  | 96.9 |  |
| COc1cc2c3cc1Oc1c(OC)c(OC)cc4c1C(Cc1ccc(O)c(c1)Oc1ccc(cc1)CC3N(C)CC2)N(C)CC4.Cl (stereo not drawn) [MMV007474] | 94.2 |  |  |
| Cc1ccc(NC(=O)c2ccc(CN3CCN(C)CC3)cc2)cc1Nc1nccc(-c2cccnc2)n1 [MMV009948] |  | 98.37 |  |
| CN1CCCC1CCO[C@](C)(c1ccccc1)c1ccc(Cl)cc1 (stereo partly drawn) [MMV637229] |  | 98.88 |  |
| CCC(C)n1ncn(-c2ccc(N3CCN(c4ccc(OCC5COC(Cn6cncn6)(c6ccc(Cl)cc6Cl)O5)cc4)CC3)cc2)c1=O (stereo not drawn) [MMV637528] |  | 97.65 |  |
| CC(=O)N1CCN(c2ccc(OC[C@@H]3CO[C@@](Cn4ccnc4)(c4ccc(Cl)cc4Cl)O3)cc2)CC1 [MMV637533] |  | 113.2 |  |
| CC(C)(C)NC(=O)[C@@H]1CN(Cc2cccnc2)CCN1C[C@@H](O)C[C@@H](Cc1ccccc1)C(=O)N[C@H]1c2ccccc2C[C@H]1O [MMV659198] |  | 103.91 |  |
| CO[C@@H](C(=O)N1Cc2[nH]nc(NC(=O)c3ccc(N4CCN(C)CC4)cc3)c2C1)c1ccccc1 [MMV676600] |  | 100.25 |  |
| CC[C@@H]([C@H](C)O)n1ncn(-c2ccc(N3CCN(c4ccc(OC[C@@H]5CO[C@@](Cn6cncn6)(c6ccc(F)cc6F)C5)cc4)CC3)cc2)c1=O [MMV688774] | 86.8 |  |  |
| CC(=O)Oc1ccccc1C(=O)Nc1ncc([N+](=O)[O-])s1 [MMV688991] |  | 112.67 |  |
| CC(C)C[C@H](NC(=O)[C@@H](NC(=O)c1cccc(-c2ccccc2)n1)[C@@H](C)O)B(O)O [MMV690548] |  | 97.97 |  |
| O=C(NC1CCCc2c1[nH]c1ccc(Cl)cc21)c1ccccn1 (stereo not drawn) [MMV690621] | 85.65 |  |  |
| CNCc1[cH-]ccc1CNc1ccnc2cc(Cl)ccc12.[Fe+2].c1cc[cH-]c1 [MMV892669] |  | 102.88 |  |
| O=C(Nc1ncccc1O)c1ccc(N2CCOCC2)nc1 [MMV1103183] |  | 99.33 |  |
| Cn1cc(CN2CCc3c(c(C(=O)NCc4nccs4)nn3Cc3ccccc3)C2)c2ccccc21 [MMV1167451] | 84.51 |  |  |

| Compound | C. elegans Mean motility vs. DMSO control (%) (Caenorhabditis elegans [1]; C. elegans L4) | C. elegans Mean motility vs. DMSO control (%) (Caenorhabditis elegans [1]; [4]) | further results |
| --- | --- | --- | --- |
| CCCOc1ccc(C(F)(F)F)cc1NC(=O)c1nc2nccc(C)n2n1 [MMV1262756] | 25.74 |  |  |
| O=C(Nc1ncccc1O)c1ccc(Cn2cccn2)cc1 [MMV1266067] | 85.15 |  |  |
| Cn1ccnc1SCC(=O)Nc1ccc(C(=O)Nc2ncccc2O)cc1 [MMV1267536] | 64.36 |  |  |
| O=C(Nc1ncccc1O)c1ccc(S(=O)(=O)NCCc2cccs2)cc1 [MMV1435700] | 75.25 |  |  |
| C[C@H](Cn1cnc2c(N)ncnc21)OCP(=O)(O)O [MMV1580478] | 95.45 |  |  |
| CC(C)Oc1ccc(-c2nc(-c3cccc4c3CC[C@@H]4NCCO)no2)cc1C#N [MMV1580492] | 83.52 |  |  |
| CC(C)(C)NC(=O)N[C@H](C(=O)N1C[C@H]2[C@@H]([C@H]1C(=O)NC(CC1CCC1)C(=O)C(N)=O)C2(C)C)C(C)(C)C (stereo partly drawn) [MMV1580497] | 86.33 |  |  |
| C[C@@H](c1nc(-c2ccc(C#N)cc2)cs1)[C@](O)(Cn1cncn1)c1ccc(F)cc1F [MMV1634362] | 84.55 |  |  |
| CCC1=C(c2ccc(C)cc2)S(=O)(=O)N=C1N1CCC(C(=O)NCCN2CCCC[C@@H]2C)CC1 [MMV1704710] |  | 104.04 |  |
| Oc1ccccc1CCN[C@H]1CCc2ccc(F)cc21 [MMV1726212] | 87.88 |  |  |
| CCn1cnc2c(N3CCC[C@H](c4ccncc4)C3)ncnc21 [MMV1752548] | 78.79 |  |  |
| O=C(Nc1cnc2ccccc2c1)c1ccccc1C(=O)c1ccc(F)cc1 [MMV1760745] | 93.6 |  |  |
| c1ccc(-c2ccnc(C3CCN(CC45CNCC4C5)CC3)n2)cc1 (stereo not drawn) [MMV1797658] | 81.14 |  |  |
| O=C(NC1CCN(CCOc2ccc(Cl)cc2)CC1)c1c[nH]c2ccncc2c1=O [MMV1798946] |  | 99.33 |  |
| CC[C@@H](C(=O)[C@@H](C)[C@@H](O)[C@H](C)[C@@H]1O[C@@H]([C@@H](CC)C(=O)O)CC[C@@H]1C)[C@H]1O[C@]2(C=C[C@@H](O)[C@]3(CC[C@@](C)([C@H]4CC[C@](O)(CC)[C@H](C)O4)O3)O2)[C@H](C)C[C@@H]1C [MMV1804312] |  | 96.95 |  |
| CCOCn1c(-c2ccc(Cl)cc2)c(C#N)c(Br)c1C(F)(F)F [chlorfenapyr] | 0.26 |  | CC50 at 48 h [2, 5]: 20.9 ± 7.34 µM; C. elegans NOTES (HIT) (Caenorhabditis elegans [1]): HIT; EC50 (Caenorhabditis elegans [3]; C. elegans L4, after 12 h): 1.65 ± 0.449 µM |
| CO[C@H]1C[C@H](O[C@H]2[C@H](C)O[C@@H](O[C@@H]3/C(C)=C/C[C@@H]4C[C@@H](C[C@]5(C=C[C@H](C)[C@@H](C6CCCCC6)O5)O4)OC(=O)[C@@H]4C=C(C)[C@@H](O)[C@H]5OC/C(=C\C=C\[C@@H]3C)[C@]54O)C[C@@H]2OC)O[C@@H](C)[C@@H]1O [doramectin, reference compound] | 6.74 |  | C. elegans NOTES (HIT) (Caenorhabditis elegans [1]): HIT |
| CO/N=C1\C[C@]2(C[C@@H]3C[C@@H](C/C=C(\C)C[C@@H](C)/C=C/C=C4\CO[C@@H]5[C@H](O)C(C)=C[C@@H](C(=O)O3)[C@]45O)O2)O[C@H](/C(C)=C/C(C)C)[C@H]1C [moxidectin, reference compound] | 0.28 |  | CC50 at 48 h [2]: 13.3 ± 9.47 µM; C. elegans NOTES (HIT) (Caenorhabditis elegans [1]): HIT; EC50 (Caenorhabditis elegans [3]; 1 h): 0.128 ± 0.045 µM |
| CO[C@H]1C[C@H](O[C@@H]2/C(C)=C/C[C@@H]3C[C@@H](C[C@]4(CC[C@H](C)[C@@H](C5CCCCC5)O4)O3)OC(=O)[C@@H]3C=C(C)/C(=N/O)[C@H]4OC/C(=C\C=C\[C@@H]2C)[C@]43O)O[C@@H](C)[C@@H]1O [selamectin, reference compound] | 2.31 |  | CC50 at 48 h [2, 5]: 9.88 ± 4.26 µM; C. elegans NOTES (HIT) (Caenorhabditis elegans [1]): HIT; EC50 (Caenorhabditis elegans [3]; C. elegans L4, after 3 h): 0.722 ± 0.555 µM |
| abamectin [reference compound] | 3.6 |  | C. elegans NOTES (HIT) (Caenorhabditis elegans [1]): HIT |
| eprinomectin [reference compound] | 13.19 |  | C. elegans NOTES (HIT) (Caenorhabditis elegans [1]): HIT |
| milbemectin [reference compound] | 1.69 |  | C. elegans NOTES (HIT) (Caenorhabditis elegans [1]): HIT |
